One data set deals with Sprague Dawley male rats. Kind of data set: Mechanical hyperalgesia (von Frey) in CFA-induced inflammatory pain rat model. It counts as in vivo. The procedure:
Raw data (paw withdrawal threshold, expressed in g of von Frey filament) was converted to a maximal possible effect value according the following equation: % MPE=[(test threshold(g)−control threshold(g)/(pre-CFA threshold−control threshold)]×100.
Complete Freund's adjuvant (CFA) contains Mycobacterium butyricum, inducing inflammation and an increase in paw thickness. 0.1 mL of CFA was injected in the right hind paw of Sprague Dawley male rats under isoflurane anaesthesia.
Mechanical hyperalgesia. Mechanical hyperalgesia was measured 3 days after CFA treatment. Rats (n=6) were placed in elevated boxes with a mesh floor. Von Frey filaments (expressed in g) were applied perpendicularly to the hindpaws, starting with the lowest filament (1.4 g) then increased until hindpaw withdrawal was observed. After each measurement, rats received the next dose of drug (every 20 min) until the maximum threshold (26 g) was observed. For the antagonist study, rats were pretreated with the benzodiazepine site antagonist flumazenil (10 min) and then received the next dose of drug (every 20 min) until the pre-CFA threshold was observed.
Drugs. The following drugs were used: HZ166, KRM-II-18B, and KRM-II-81, and were dissolved in a mixture containing 20% Dimethyl sulfoxide (DMSO), 10% Emulphor-620 (Rhodia Inc.), and 70% of 0.9% saline. Flumazenil (purchased from Cayman Chemical Company, MI) was dissolved in a mixture containing 10% ethanol, 40% propylene glycol, and 50% sterile water. Midazolam (Akorn, Inc.) was dissolved in 0.9% saline. Doses were expressed as the weight of the drug in milligrams per kilogram of body weight and drugs were administered intraperitoneally.

Data set [1] in a line: Liver microsomal stability, dog. It counts as in vitro ADME. The note with it: 37° C., 4 μM compound, 30 minutes. On the procedure:
(§1) In vitro metabolism studies were done in mouse, rat, human, and dogs cells (TABLE 2).
(§2) In vitro liver microsomal studies were completed to measure the stability of the compounds against degradation in various species' liver microsomes.
(§3) Compound was incubated in hepatic microsomes over a 30-minute incubation period at 37° C. Incubations both with and without NADPH (2 mM) were performed in a 96-well plate format. The reaction was initiated with the addition of substrate and was terminated by protein precipitation. All incubations were performed using a final substrate concentration of 4 μM in 50 mM sodium phosphate buffer, pH 7.4. The final organic solvent content was 0.5% acetonitrile and 0.02% DMSO. The amount of enzyme present was fixed at 1.11 mg/mL protein irrespective of the species of microsomes used. Samples were analyzed by LC/MS-MS to determine the percent loss in the NAPDH incubations relative to the NADPH free incubations.

Data set [2] concerns the target T1, α3, β3, γ2 GABA A receptor (Homo sapiens, UniProt P18507+P34903).
T1 construct: host or cells: HEK-293, stably transfected
The data set can be described thus: FLIPR functional assay, α3 GABAA receptor subtype in HEK-293 cells. It counts as cell-based. The note with it: α3 Binding EC50, FLIPR membrane potential, potentiation of GABA EC20. An excerpt:
(§4) The FLIPR functional assay is used to determine the EC50 at the α1 and α3 GABAA receptor subtypes. A high EC50 for the α1 subtype would indicate a low chance of adverse effects, including sedation, ataxia, and muscle relaxation. A low α3 EC50 would indicate potential effectiveness as an anxiolytic, antihyperalgesic, and likely an anticonvulsant. See, for example, Liu et al. (Assay. Drug. Dev. Technol. 2008, 6, 781-6) and Joesch et al. (J. Biomol. Screen. 2008, 13, 218-28).
(§5) Compounds tested were synthesized internally and solubilized in DMSO at a 10 mM concentration. GABA was purchase from Sigma (#A2129) and prepared at 100 mM in water.
(§6) HEK-293 cells were stably transfected with the α1, β3, γ2 GABA A receptor subunits (GenBank accession numbers NM_000806.3, NM_000814.5, and NM_198904.1, respectively) or α3, β3, γ2 (NM_000808 for α3) where obtained from ChanTest Co. (Catalog # CT6216 and CT6218, respectively).
(§7) Cells were cultivated in Dulbeco's Modified Eagle's Medium (DMEM, Sigma D5796) supplemented with 10% Fetal Bovine Serum (FBS, Gibco 16000), 0.5 mg/mL Geneticin (Gibco), 0.04 mg/mL Hygromycin B (Gibco), 0.1 mg/mL Zeocin (Gibco) and 20 mM HEPES (Sigma). Cells were grown at 37° C. in a humidified atmosphere of 5% CO2. In the experiments described here frozen cells were used. For this purpose, cells were gown and maintained under confluency during 2-3 weeks and then frozen down at different cell densities using Recovery™ Cell Culture Freezing Medium (Gibco).
(§8) 18 hours prior to the experiment, cells were quickly thawed at 37° C. and seeded on Poly-D-Lys 384 plates (Corning 356663) at a density of 25,000 cells/well and in 25 μL of complete cell medium as described above.
(§9) Membrane potential changes induced by the flux of ions through the receptor were measured as relative fluorescence units (RFU) using the Fluorometric Imaging Plate Reader (FLIPR Tetra®, Molecular Devices) and the FLIPR Membrane Potential Blue Assay kit (Molecular Devices). Prior to the addition of the compounds the medium was removed and cells were loaded with 20 μL of dye prepared in assay buffer composed of Hank's Balanced Salt Solution (HBSS with Ca^+2 and Mg^+2; Gibco 14025) with 20 mM Hepes. After 1 hour of incubation at room temperature (RT), the plate was placed into the FLIPR instrument and experiments were run adding first 10 μL from the 1st addition plate (compound plate) and after a 3 minutes incubation adding 20 μL of the 2nd addition or agonist plate. The response to this last GABA addition was monitored for another 3 minutes. […]
(§10) Data Analysis. The difference between the maximum and the minimum (Max-Min) fluorescence reached during the first addition or read interval and the second read interval were used for data analysis (agonist and potentiation, respectively). […]

In data set [3] the target is T2, α1, β3, γ2 GABA A receptor (Homo sapiens, UniProt P14867+P18507).
T2 construct: host or cells: HEK-293, stably transfected
T2 sequence (P14867 28-456): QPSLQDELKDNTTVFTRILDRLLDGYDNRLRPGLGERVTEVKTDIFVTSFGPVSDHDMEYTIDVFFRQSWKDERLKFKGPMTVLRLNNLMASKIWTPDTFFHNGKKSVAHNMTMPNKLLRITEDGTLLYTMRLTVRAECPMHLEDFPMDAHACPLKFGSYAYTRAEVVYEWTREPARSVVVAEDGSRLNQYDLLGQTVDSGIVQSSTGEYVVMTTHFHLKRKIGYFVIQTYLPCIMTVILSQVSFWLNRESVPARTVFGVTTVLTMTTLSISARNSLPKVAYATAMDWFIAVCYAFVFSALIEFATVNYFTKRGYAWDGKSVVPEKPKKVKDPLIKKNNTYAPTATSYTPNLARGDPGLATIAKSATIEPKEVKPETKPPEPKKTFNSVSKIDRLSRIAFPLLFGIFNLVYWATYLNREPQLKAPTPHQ
T2 sequence (P28472 26-473 partner): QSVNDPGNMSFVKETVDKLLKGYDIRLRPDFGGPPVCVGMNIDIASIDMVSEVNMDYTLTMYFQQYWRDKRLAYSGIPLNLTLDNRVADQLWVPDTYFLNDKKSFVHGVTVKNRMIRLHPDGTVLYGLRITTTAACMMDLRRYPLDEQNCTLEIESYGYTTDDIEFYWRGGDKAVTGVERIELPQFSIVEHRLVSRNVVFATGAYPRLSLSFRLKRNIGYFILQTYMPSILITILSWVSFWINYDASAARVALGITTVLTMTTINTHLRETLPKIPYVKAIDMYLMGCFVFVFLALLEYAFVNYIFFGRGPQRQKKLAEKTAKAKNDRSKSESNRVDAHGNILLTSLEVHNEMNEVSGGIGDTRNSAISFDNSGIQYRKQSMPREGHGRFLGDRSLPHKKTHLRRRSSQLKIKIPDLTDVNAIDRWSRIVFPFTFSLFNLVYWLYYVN
T2 sequence (P18507 40-475): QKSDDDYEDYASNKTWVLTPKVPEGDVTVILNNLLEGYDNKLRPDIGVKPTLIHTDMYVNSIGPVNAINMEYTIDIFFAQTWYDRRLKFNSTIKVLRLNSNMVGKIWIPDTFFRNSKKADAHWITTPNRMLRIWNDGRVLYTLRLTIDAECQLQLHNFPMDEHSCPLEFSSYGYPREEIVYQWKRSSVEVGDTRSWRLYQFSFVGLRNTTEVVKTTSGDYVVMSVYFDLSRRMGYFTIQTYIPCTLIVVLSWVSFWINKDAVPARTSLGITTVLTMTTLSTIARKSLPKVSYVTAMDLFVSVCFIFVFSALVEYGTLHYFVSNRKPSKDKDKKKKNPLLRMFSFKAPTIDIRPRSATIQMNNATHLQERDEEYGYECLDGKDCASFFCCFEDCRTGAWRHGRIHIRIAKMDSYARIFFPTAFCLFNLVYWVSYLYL
The data set can be described thus: FLIPR functional assay, α1 GABAA receptor subtype in HEK-293 cells. It counts as cell-based.
Excerpt: as §4, §5, §6, §7, §8, §9, §10

Data set [4] is described as follows: Liver microsomal stability, rat. It counts as in vitro ADME. The settings on record: 37° C., 4 μM compound, 30 minutes. On the procedure: as §1, §2, §3
Data set [5] is described as follows: Liver microsomal stability, mouse. It counts as in vitro ADME. The settings on record: 37° C., 4 μM compound, 30 minutes. The procedure:
as §1, §2, §3

The nature of data set [6]: Liver microsomal stability, human. It counts as in vitro ADME. The note with it: 37° C., 4 μM compound, 30 minutes. The procedure: as §1, §2, §3
The subject of another data set is Male Sprague-Dawley rats. Kind of data set: von Frey filament test in spinal nerve ligated (SNL) rats. It counts as in vivo. The procedure:
FIG. 11 is a graph of time versus withdrawal threshold for KRM-II-81, Gabapentin, and vehicle, showing the effect of KRM-II-81 on antihyperalgesia in the von Frey filament assay. Male Sprague-Dawley rats (n=5) were dosed i.p. either vehicle, KRM-II-81 (30 mg/kg), or gabapentin (50 mg/kg) and tested in the von Frey filament assay after undergoing SNL 90 days prior. Results were analyzed using ANOVA (Dunnett's test: *P<0.05).
The von Frey filament test is used to test for antihyperalgesia, or an increased sensitivity to pain. […] The von Frey filaments are used to apply pressure to the forelimbs of test subjects at set amounts. When pressure becomes too great, the forelimb is withdrawn and the amount of force applied recorded. The spinal nerve ligation induced hyperalgesia, reducing the amount of force a limb can take before being withdrawn.
Test compounds were given to test the effectiveness of combating the hyperalgesic effect of SNL. Male Sprague-Dawley rats went through SNL at least 90 days prior to the von Frey testing. Rats were first tested without given an injection to determine a baseline. Following baseline establishment, rats (n=5 for all groups) were dosed i.p. with vehicle (1% carboxymethyl cellulose), KRM-II-81 (30 mg/kg), or gabapentin (50 mg/kg). Subjects were then tested every hour for four hours to determine the antihyperalgesic effect of the test compounds. For testing, pressure using von Frey filaments was applied to the forelimb of the rat. Pressure was increased until the limb was withdrawn, and the amount of pressure was recorded.

The subject of the next data set is Male NIH Swiss mice. Kind of data set: Rotorod assay (ataxia). It counts as in vivo. The note with it: 30 mg/kg i.p., 30 minutes prior, 4 r.p.m., two minutes. On the procedure: Male NIH Swiss mice (n=10) were dosed i.p. with vehicle (1% carboxymethyl cellulose) or one of the test compounds (10 or 30 mg/kg) 30 minutes prior to being tested on the rotorod. Mice were placed on a rod for two minutes at 4 revolutions per minute. […] Mice that fell twice failed the testing.
The rotorod assay (FIG. 5) is used to determine the ataxic effects, generally stemming from the α1 subtype, that compounds have in test subjects. Mice are trained to run on a slow, rotating cylinder for two minutes, and failure to stay on the rod may be due to ataxia. […] Each set of compounds were tested against a vehicle.
Male NIH Swiss mice (n=10/group) were trained on a rotorod (Ugo Basile 7650) at 4 r.p.m. for two minutes per training session prior to testing. On test day, mice were dosed i.p. with either vehicle (1% carboxymethyl cellulose) or one of the test compounds (10 or 30 mg/kg) 30 minutes prior to testing.

SMILES strings stand for the structures.

T1 sequence (P34903 29-492): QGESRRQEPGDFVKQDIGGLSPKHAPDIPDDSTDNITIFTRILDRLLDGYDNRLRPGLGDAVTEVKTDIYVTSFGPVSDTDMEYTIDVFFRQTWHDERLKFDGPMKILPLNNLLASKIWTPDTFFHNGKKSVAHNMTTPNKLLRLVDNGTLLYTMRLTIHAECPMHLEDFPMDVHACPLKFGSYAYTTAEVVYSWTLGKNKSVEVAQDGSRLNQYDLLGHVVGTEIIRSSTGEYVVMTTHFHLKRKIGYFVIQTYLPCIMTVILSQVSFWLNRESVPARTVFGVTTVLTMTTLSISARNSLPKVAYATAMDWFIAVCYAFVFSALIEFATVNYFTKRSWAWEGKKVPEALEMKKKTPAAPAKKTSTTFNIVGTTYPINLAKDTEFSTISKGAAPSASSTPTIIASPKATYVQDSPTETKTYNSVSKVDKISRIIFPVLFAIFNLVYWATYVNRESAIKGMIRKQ
T1 sequence (P28472 26-473 partner): as the sequence (P28472 26-473 partner) above
T1 sequence (P18507 40-475): as the sequence (P18507 40-475) above

With `Brc1ccc2c(c1)C(c1ccccc1)=NCc1c(-c3cnco3)ncn1-2`, the melting point fell in the range of 225 to 227 °C.
For the compound `CCOC(=O)c1ncn2c1CN(C)C(=O)c1cc(F)ccc1-2` [flumazenil, reference compound], in the data set with Sprague Dawley male rats (flumazenil pretreatment 10 min), the “shift of PAM dose-effect curves by antagonist pretreatment” value was “shifted the dose-effect curves of PAMs rightward”.
As for `Fc1ccccc1C1=NCc2c(-c3cnco3)ncn2-c2ccc(Br)cc21` [SH-I-085, 5-(8-Bromo-6-(2-fluorophenyl)-4H-benzo[f]imidazo[1,5-a][1,4]diazepin-3-yl)oxazole], the melting point was in the range of 190 to 192 °C. The “Dog Liver microsome stability (reported in % remaining)” value in [1] amounted to 77 % remaining. Besides, in data set [2], the EC50 amounted to 24.9 nM. Further, the EC50 in [3] was above 20000 nM. Besides, the “Rat Liver microsome stability (reported in % remaining)” value in data set [4] is listed as 61 % remaining. Moreover, the “Mouse Liver microsome stability (reported in % remaining)” value in data set [5] worked out at 67 % remaining. In addition, the “Human Liver microsome stability (reported in % remaining)” value in data set [6] is on record as 62 % remaining.
On to `C#Cc1ccc2c(c1)C(c1ccccn1)=NCc1c(-c3ocnc3C)ncn1-2`, for which the melting point was 209 to 211 °C.
As to `NCC1(CC(=O)O)CCCCC1` [gabapentin, reference compound], the “antihyperalgesic activity, von Frey after SNL” value in the data set on Male Sprague-Dawley rats (KRM-II-81 30 mg/kg, gabapentin 50 mg/kg i.p.) is recorded as “active as antihyperalgesics”. Also, the “pain threshold (force before removing paw)” value with Male Sprague-Dawley rats (from 1-2 hours, vehicle ˜5 g) was around 12 g.
`Cc1ncc2n1-c1ccc(Cl)cc1C(c1ccccc1F)=NC2` [midazolam, reference compound]: the “mechanical hyperalgesia in CFA-induced inflammatory pain” value in the data set on Sprague Dawley male rats (cumulative i.p. dosing, 3 days after CFA) is “dose-dependently attenuated mechanical hyperalgesia”.
Regarding `Cc1ncoc1-c1ncn2c1CN=C(c1ccccc1)c1cc(C#C[Si](C)(C)C)ccc1-2`, the melting point was in the range of 130 to 132 °C.
The compound `C#Cc1ccc2c(c1)C(c1ccccc1F)=NCc1c(-c3ocnc3C)ncn1-2` returned a melting point of 145 to 147 °C.
On the same count and under the same terms, as for `Cc1ncoc1-c1ncn2c1CN=C(c1ccccc1)c1cc(Br)ccc1-2`, the figure is 236 to 238 °C.
For the compound `C#Cc1ccc2c(c1)C(c1ccccc1)=NCc1c(-c3cnco3)ncn1-2` [KRM-II-82, 5-(8-Ethynyl-6-phenyl-4H-benzo[f]imidazo[1,5-a][1,4]diazepin-3-yl)oxazole], the “Dog Liver microsome stability (reported in % remaining)” value in data set [1] is listed as 86 % remaining. Also, the EC50 in [2] was 32.1 nM; in [3], above 20000 nM. In the data set with Male NIH Swiss mice, the “rotorod performance at 30 mg/kg” value is “failed multiple times”. In data set [4], the “Rat Liver microsome stability (reported in % remaining)” value stood at 72 % remaining. Further, the “Mouse Liver microsome stability (reported in % remaining)” value in data set [5] was determined as 73 % remaining. Further, the “Human Liver microsome stability (reported in % remaining)” value in data set [6] is 74 % remaining.
For `Cc1ncoc1-c1ncn2c1CN=C(c1ccccc1F)c1cc(Br)ccc1-2`, the melting point was 138 to 140 °C.
`C[Si](C)(C)C#Cc1ccc2c(c1)C(c1ccccn1)=NCc1c(-c3cnco3)ncn1-2` had a melting point of 208 to 210 °C.
As for `Cc1ncoc1-c1ncn2c1CN=C(c1ccccc1F)c1cc(C#C[Si](C)(C)C)ccc1-2`, the melting point lay within 209 to 211 °C.
Compound `C#Cc1ccc2c(c1)C(c1ccccc1)=NCc1c(-c3ocnc3C)ncn1-2` yielded a melting point of 228 to 230 °C.
Regarding `Cc1ncoc1-c1ncn2c1CN=C(c1ccccn1)c1cc(Br)ccc1-2`, the melting point fell in the range of 228 to 230 °C.

The values are drawn from patent US10259815B2, “Gabaergic ligands and their uses” (UWM Research Foundation, Inc., priority 2015, dated 2019).
